Read-outs that look alike come from different tables or passages of the source.
Legend:
Human α4β2 = biological target: T1, Human α4β2 (Homo sapiens, UniProt P17787+P43681); assay: Competition binding to receptors in membrane preparations, human α4β2 ([3H]-nicotine)
T1 construct: expressed in transfected cells; obtained from Dr. Ron Lukas, Barrow Neurological Institute
Description: (§1) SH-EP1/human α4β2 (Eaton et al., 2003), SH-EP1/human α4β4 (Gentry et al., 2003), SH-EP1/α6β3β4α5 (Grinevich et al., 2005), TE671/RD and SH-SY5Y cell lines (obtained from Dr. Ron Lukas, Barrow Neurological Institute) were maintained in proliferative growth phase in Dulbecco's modified Eagle's medium (Gibco/BRL) with 10% horse serum (Gibco BRL), 5% fetal bovine serum (HyClone, Logan Utah), 1 mM sodium pyruvate, 4 mM L-glutamine. For maintenance of stable transfectants, the α4β2 and α4β4 cell media was supplemented with 0.25 mg/mL zeocin and 0.13 mg/mL hygromycin B. Selection was maintained for the α6β3β4α5 cells with 0.25 mg/mL of zeocin, 0.13 mg/mL of hygromycin B, 0.4 mg/mL of geneticin, and 0.2 mg/mL of blasticidin. HEK/human α7/RIC3 cells (obtained from J. Lindstrom, U. Pennsylvania) were maintained in proliferative growth phase in Dulbecco's modified Eagle's medium (Gibco/BRL) with 10% fetal bovine serum (HyClone, Logan Utah), 1 mM sodium pyruvate, 4 mM L-glutamine, 0.4 mg/mL geneticin; 0.2 mg/ml hygromycin B.
(§2) Cells were harvested in ice-cold PBS, pH 7.4, then homogenized with a polytron (Brinkmann Instruments, Westbury, N.Y.). Homongenates were centrifuged at 40,000 g for 20 minutes (4° C.). The pellet was resuspended in PBS and protein concentration determined using the Pierce BCA Protein Assay kit (Pierce Biotechnology, Rockford, Ill.).
(§3) Binding to nicotinic receptors was assayed on membranes using standard methods adapted from published procedures (Lippiello and Fernandes, 1986; Davies et al., 1999). In brief, membranes were reconstituted from frozen stocks (approximately 0.2 mg protein) and incubated for 2 h on ice in […] assay buffer (PBS) in the presence of competitor compound (0.001 nM to […]) and radioligand. [^3H]-nicotine (L-(−)-[N-methyl-3H]-nicotine, 69.5 Ci/mmol, Perkin-Elmer Life Sciences) was used for human α4β2 binding studies. [^3H]-epibatidine (52 Ci/mmol, Perkin-Elmer Life Sciences) was used for binding studies at the other receptor subtypes. Incubation was terminated by rapid filtration on a multimanifold tissue harvester (Brandel, Gaithersburg, Md.) using GF/B filters presoaked in 0.33% polyethyleneimine (w/v) to reduce non-specific binding. Filters were washed 3 times and the radioactivity retained was determined by liquid scintillation counting.
(§4) Binding data were expressed as percent total control binding. Replicates for each point were averaged and plotted against the log of drug concentration. The IC50 (concentration of the compound that produces 50% inhibition of binding) was determined by least squares non-linear regression using GraphPad Prism software (GraphPAD, San Diego, Calif.). Ki was calculated using the Cheng-Prusoff equation (Cheng and Prusoff, 1973).

Human α7 nAChR = biological target: T2, Human α7 nAChR (Homo sapiens, UniProt P36544); assay: Competition binding to receptors in membrane preparations, human α7 ([3H]-epibatidine)
T2 construct: expressed in transfected cells; host or cells: HEK cells co-expressing RIC3 (from J. Lindstrom, U. Pennsylvania)
Description: as §1, §2, §3, §4

Human Ganglion = biological target: T3, Human Ganglion (Homo sapiens, UniProt P30926+P32297); assay: Competition binding to receptors in membrane preparations, human ganglion subtype ([3H]-epibatidine)
T3 construct: endogenous in cells
Description: as §1, §2, §3, §4

Rat Ganglion = Rat Ganglion (Rattus norvegicus, UniProt P04757+P12392); assay: Competition binding to receptors in membrane preparations, rat ganglion subtype ([3H]-epibatidine)
Description: as §3, §4

Compound	Ki (Human α4β2; read-out: Human α4β2 Ki)	Ki (Human α7 nAChR)	Ki (Human Ganglion)	Ki (Rat Ganglion)	Ki (Human α4β2)
CN[C@@H](C)C/C=C/c1cnc(Cl)c(O[C@H]2CCN(C(=O)C(C)C)C2)c1	0.013 µM	29 µM	27 µM	16 µM	–
CN[C@@H](C)C/C=C/c1cncc(O[C@H]2CCN(C(=O)c3ccc(F)cc3F)C2)c1	0.029 µM	47 µM	3.3 µM	80 µM	–
CN[C@@H](C)C/C=C/c1cncc(O[C@H]2CCN(C(=O)C(C)(C)C)C2)c1	0.0075 µM	100 µM	19 µM	130 µM	–
CN[C@@H](C)C/C=C/c1cnc(Cl)c(O[C@H]2CCN(C(=O)C(C)(C)C)C2)c1	0.0067 µM	39 µM	4.8 µM	11 µM	–
CN[C@@H](C)C/C=C/c1cncc(O[C@H]2CCN(C(=O)C3CCC3)C2)c1	0.018 µM	66 µM	27 µM	17 µM	–
CN[C@@H](C)C/C=C/c1cncc(O[C@H]2CCN(C(=O)C3CCCC3)C2)c1	0.0078 µM	85 µM	13 µM	6.9 µM	–
CN[C@@H](C)C/C=C/c1cnc(Cl)c(O[C@H]2CCN(C(=O)C3CCCC3)C2)c1	0.0021 µM	160 µM	7.6 µM	55 µM	–
CN[C@@H](C)C/C=C/c1cnc(Cl)c(O[C@H]2CCN(C(=O)CC(C)(C)C)C2)c1	0.0064 µM	48 µM	15 µM	11 µM	–
CN[C@@H](C)C/C=C/c1cncc(O[C@H]2CCN(C(=O)CC(F)(F)F)C2)c1	0.003 µM	68 µM	5.4 µM	6.8 µM	–
CN[C@@H](C)C/C=C/c1cncc(O[C@H]2CCN(C(=O)CC3CCCC3)C2)c1	0.0086 µM	49 µM	26 µM	11 µM	–
CN[C@@H](C)C/C=C/c1cnc(Cl)c(O[C@H]2CCN(C(=O)CC3CCCC3)C2)c1	0.0061 µM	36 µM	2.5 µM	4 µM	–
CN[C@@H](C)C/C=C/c1cncc(O[C@H]2CCN(C(=O)CCC(F)(F)F)C2)c1	0.011 µM	49 µM	18 µM	33 µM	–
CN[C@@H](C)C/C=C/c1cncc(O[C@H]2CCN(C(=O)c3ccc(F)cc3)C2)c1	0.0052 µM	58 µM	14 µM	190 µM	–
CN[C@@H](C)C/C=C/c1cncc(O[C@@H]2CCN(C(=O)CC(C)(C)C)C2)c1	–	260 µM	43 µM	35 µM	0.032 µM
CN[C@@H](C)C/C=C/c1cncc(O[C@@H]2CCN(C(=O)CC3CCCC3)C2)c1	0.011 µM	53 µM	5.8 µM	170 µM	–
CN[C@@H](C)C/C=C/c1cncc(O[C@@H]2CCN(C(=O)CCC(F)(F)F)C2)c1	0.0043 µM	170 µM	19 µM	43 µM	–
CN[C@@H](C)C/C=C/c1cncc(O[C@@H]2CCN(C(=O)c3ccc(F)cc3)C2)c1	0.0067 µM	53 µM	6.8 µM	100 µM	–
CN[C@@H](C)C/C=C/c1cnc(Cl)c(O[C@@H]2CCN(C(=O)c3ccc(F)cc3F)C2)c1	0.0038 µM	22 µM	6.6 µM	22 µM	–
CN[C@@H](C)C/C=C/c1cnc(Cl)c(O[C@@H]2CCN(C(=O)C(C)(C)C)C2)c1	0.0087 µM	34 µM	26 µM	1.1 µM	–
CN[C@@H](C)C/C=C/c1cnc(Cl)c(O[C@@H]2CCN(C(=O)CC(F)(F)F)C2)c1	0.0012 µM	300 µM	18 µM	8.5 µM	–
CN[C@@H](C)C/C=C/c1cncc(O[C@H]2CCN(C(=O)C(C)C)C2)c1	0.0061 µM	36 µM	20 µM	5.7 µM	–
CN[C@@H](C)C/C=C/c1cnc(Cl)c(O[C@@H]2CCN(C(=O)c3ccc(F)cc3)C2)c1	0.0033 µM	61 µM	2 µM	3.7 µM	–

Source: US20150119378A1, “AZETIDINYLOXY-, PYRROLIDINYLOXY-, AND PIPERIDINYLOXY-SUBSTITUTED METANICOTINES AS NEURONAL NICOTINIC ACETYLCHOLINE RECEPTOR LIGANDS” (priority 2013, published 2015)
